US8455547B2, “Substituted cyclopentanes having prostaglandin activity” (Allergan, Inc., priority 2008, dated 2013)

How the values were obtained:
EP2 [1] = target: T1, EP2 (Homo sapiens, UniProt P43116); assay: EP2 cAMP assay; assay type: cell-based
Source text: (§1) U.S. patent application Ser. No. 11/553,143, filed on Oct. 26, 2006, incorporated by reference herein, describes the methods used to obtain the in vitro data in Tables 1 and 2 below.

EP2 [2] = target: T1, EP2; assay: EP2 Ca2+ signal assay; assay type: cell-based; conditions: for EP2 Ca2+ signal % PGE2: relative to PGE2
Source text: as §1

EP2 [3] = target: T1, EP2; assay: EP2 binding assay
Source text: as §1

EP4 [4] = target: T2, EP4 (Homo sapiens, UniProt P35408); assay: EP4 Ca2+ signal assay; assay type: cell-based; conditions: for EP4 Ca2+ signal % PGE2: relative to PGE2
T2 sequence (P35408 whole entry): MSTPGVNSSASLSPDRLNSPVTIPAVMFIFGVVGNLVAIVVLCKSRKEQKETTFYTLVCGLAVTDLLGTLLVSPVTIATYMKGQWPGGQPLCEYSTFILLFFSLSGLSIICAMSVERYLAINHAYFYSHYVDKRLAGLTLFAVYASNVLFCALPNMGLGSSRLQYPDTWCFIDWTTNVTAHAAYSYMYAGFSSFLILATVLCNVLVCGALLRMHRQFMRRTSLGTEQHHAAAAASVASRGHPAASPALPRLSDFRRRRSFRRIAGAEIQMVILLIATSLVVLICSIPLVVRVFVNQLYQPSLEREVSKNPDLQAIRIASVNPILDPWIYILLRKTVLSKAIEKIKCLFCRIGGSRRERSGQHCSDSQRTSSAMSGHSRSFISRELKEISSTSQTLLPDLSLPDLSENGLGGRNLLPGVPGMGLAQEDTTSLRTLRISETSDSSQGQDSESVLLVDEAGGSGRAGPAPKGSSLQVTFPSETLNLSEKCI
Source text: as §1

EP4 [5] = target: T2, EP4; assay: EP4 binding assay
Source text: as §1

EP1 = target: T3, EP1 (Homo sapiens, UniProt P34995); assay: EP1 functional assay; assay type: cell-based
T3 sequence (P34995 1-402): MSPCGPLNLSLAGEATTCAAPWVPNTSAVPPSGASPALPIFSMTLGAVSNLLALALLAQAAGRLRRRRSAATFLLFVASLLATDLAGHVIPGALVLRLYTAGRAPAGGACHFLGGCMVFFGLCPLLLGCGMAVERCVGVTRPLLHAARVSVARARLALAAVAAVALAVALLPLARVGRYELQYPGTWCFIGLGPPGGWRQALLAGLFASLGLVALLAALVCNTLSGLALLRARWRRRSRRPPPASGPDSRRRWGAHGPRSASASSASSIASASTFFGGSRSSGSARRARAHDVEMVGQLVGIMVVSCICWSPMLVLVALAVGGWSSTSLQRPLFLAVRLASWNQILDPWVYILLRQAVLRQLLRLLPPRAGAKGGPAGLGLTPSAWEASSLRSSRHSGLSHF
Source text: as §1

EP3 = target: T4, EP3 (Homo sapiens, UniProt P43115); assay: EP3 functional assay; assay type: cell-based
T4 sequence (P43115 1-390): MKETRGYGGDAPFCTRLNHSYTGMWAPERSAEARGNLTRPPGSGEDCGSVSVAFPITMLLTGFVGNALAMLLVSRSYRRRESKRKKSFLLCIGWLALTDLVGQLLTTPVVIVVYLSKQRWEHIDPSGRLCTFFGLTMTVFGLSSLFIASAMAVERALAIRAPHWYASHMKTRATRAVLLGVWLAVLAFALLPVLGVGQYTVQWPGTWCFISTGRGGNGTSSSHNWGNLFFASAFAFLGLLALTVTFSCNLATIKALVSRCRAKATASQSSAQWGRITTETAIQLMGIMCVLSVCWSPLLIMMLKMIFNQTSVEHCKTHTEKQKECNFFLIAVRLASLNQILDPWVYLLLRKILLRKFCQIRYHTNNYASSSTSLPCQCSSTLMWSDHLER
Source text: as §1

TP = target: T5, TP (Homo sapiens, UniProt P21731); assay: TP functional assay; assay type: cell-based
T5 sequence (P21731 1-343): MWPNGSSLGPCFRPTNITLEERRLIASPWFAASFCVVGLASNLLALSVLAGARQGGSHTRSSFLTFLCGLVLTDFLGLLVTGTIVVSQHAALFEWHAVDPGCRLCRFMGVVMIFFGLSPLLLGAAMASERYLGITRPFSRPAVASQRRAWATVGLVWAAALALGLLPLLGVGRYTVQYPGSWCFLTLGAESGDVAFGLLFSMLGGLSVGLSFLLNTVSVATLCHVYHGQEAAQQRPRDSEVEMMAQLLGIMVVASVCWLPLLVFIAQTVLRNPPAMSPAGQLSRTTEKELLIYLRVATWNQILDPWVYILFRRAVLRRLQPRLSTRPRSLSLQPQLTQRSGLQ
Source text: as §1

T1 sequence (P43116 whole entry): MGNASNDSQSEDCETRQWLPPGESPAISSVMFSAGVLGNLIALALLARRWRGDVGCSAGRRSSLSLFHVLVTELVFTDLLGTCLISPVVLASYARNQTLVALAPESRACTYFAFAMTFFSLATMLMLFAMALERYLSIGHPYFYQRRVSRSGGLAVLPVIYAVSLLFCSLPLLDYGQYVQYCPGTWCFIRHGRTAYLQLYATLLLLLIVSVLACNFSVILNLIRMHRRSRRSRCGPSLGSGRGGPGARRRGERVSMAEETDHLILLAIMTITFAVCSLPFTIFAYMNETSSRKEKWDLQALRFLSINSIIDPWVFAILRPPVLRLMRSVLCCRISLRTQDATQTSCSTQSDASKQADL

C[C@@H](O)CCC[C@H](O)/C=C/[C@@H]1[C@@H](C/C=C\CCCC(=O)O)[C@H](Cl)C[C@H]1O
EC50 (EP2 [1]): 0.03 nM | EC50 (EP2 [2]): 4 nM | EP2 Ca2+ signal % PGE2 (EP2 [2]): 107% | EC50 (EP2 [3]): 25 nM | EP2 Binding % Inh (EP2 [3]): 99% | EC50 (EP4 [4]): 46 nM | EP4 Ca2+ signal % PGE2 (EP4 [4]): 107% | EC50 (EP4 [5]): 885 nM | EP4 Binding % Inh (EP4 [5]): 81% | EC50 (EP1): 13 nM | EC50 (EP3): 6 nM | EC50 (TP): 178 nM

C[C@@H](O)CCC[C@H](O)/C=C/[C@@H]1[C@@H](CCCCCCC(=O)O)[C@H](Cl)C[C@H]1O
EC50 (EP2 [1]): 1.47 nM | EC50 (EP2 [2]): 109 nM | EP2 Ca2+ signal % PGE2 (EP2 [2]): 100% | EC50 (EP2 [3]): 1220 nM | EP2 Binding % Inh (EP2 [3]): 78% | EC50 (EP4 [4]): 727 nM | EP4 Ca2+ signal % PGE2 (EP4 [4]): 99% | EP4 Binding % Inh (EP4 [5]): 29%
